Assay results as given in patent US12281079B2, “Quinoline derivatives, processes for their preparation and uses thereof for the treatment of cancer” (Lead Discovery Center GmbH, priority 2019, dated 2025).

How the values were obtained:
[1] = biological target: mitochondrial RNA polymerase (POLRMT) (Mus musculus, UniProt Q8BKF1); test: Homogeneous TR-FRET assay for mitochondrial transcription activity; type: biochemical; conditions: homogeneous TR-FRET assay according to Example 4
Source text: The TR-FRET assay was basically conducted as described in WO2016/193231A1, especially as described in example 1 (hereby incorporated by reference). With respect to the back ground of the mitochondrial transcription it is referred to Falkenberg et al. (2002) and Posse et al. (Posse et al., 2015). The method monitors the activity of mitochondrial RNA-polymerase via detection of the formation of its product, a 407 bp long RNA sequence. Detection of the product is facilitated by hybridization of two DNA-oligonucleotide probes to specific and adjacent sequences within the RNA product sequence. Upon annealing of the probes, two fluorophores that are coupled directly to an acceptor nucleotide probe (ATT0647, 5′) or introduced via a coupled streptavidin interacting with a biotinylated donor nucleotide probe on the other side (Europium cryptate, 3′) are brought into sufficient proximity to serve as a fluorescence-donor-acceptor pair as generally described in Walters and Namchuk (2003). Thus, a FRET signal at 665 nm is generated upon excitation at 340 nm.
Briefly, the protocol described here was applied for screening and activity determination in a low-volume 384-well microtiter plate with non-binding surface. For high-throughput application in the 1536-well microtiter plate format, volumes of the reagent mixes were adjusted, maintaining the volumetric ratio. Proteins POLRMT (NM_172551.3), TFAM (NM_009360.4) and TFB2M (NM_008249.4) were diluted from their stocks to working concentrations of 150 nM, 1.8 μM and 330 nM respectively, in a dilution buffer containing 100 mM Tris-HCl pH 8.0, 200 mM NaCl, 10% (v/v) glycerole, 2 mM glutathione (GSH), 0.5 mM EDTA and 0.1 mg/mL BSA. Protein dilutions and template DNA, comprising a pUC18 plasmid encoding the mitochondrial light strand promoter, restriction linearized proximal to the promoter 3′-end (pUC-LSP), were mixed at the twofold final assay-concentration in a reaction buffer, containing 10 mM Tris-HCl pH 7.5, 10 mM MgCl2, 40 mM NaCl, 2 mM GSH, 0.01% (w/v) Tween-20 and 0.1 mg/mL BSA.
5 μL of this mix were dispensed, depending on the chosen microtiter plate format, using multi-channel pipettes or a Multidrop® dispenser (Thermo Fisher Scientific, Waltham Mass.) into the wells of a microtiter plate and incubated at room temperature (rt) for 10 min. Chemical compounds under scrutiny in the assay were applied using contact-free acoustic droplet-dispensing (Echo520® Labcyte Inc., Sunnyvale Calif.) from 10 mM compound stocks in 100% DMSO, to a final concentration of 10 μM or in serial dilution series of the required concentration range. Equal amounts of DMSO without any compound were added to positive control samples, followed by an incubation step at rt for 10 min.
The enzymatic reaction was started by the addition of 5 μL of a mix of dNTPs in reaction buffer to a final concentration of 500 μM each. No nucleotide mix was added to negative control samples. The content of the wells was mixed using a VarioTeleshaker™ (Thermo Fisher Scientific, Waltham Mass.) at 1500 rpm for 45 sec after which the microtiter plate was centrifuged at 500×g for 1 min. The samples were incubated for 2 h at rt with humidity control to avoid evaporation. The detection reagents were prepared in a buffer that was composed, such that the enzymatic reaction was terminated due to chelating of Mg-ions and increased ionic strength, containing 50 mM Tris-HCl pH 7.5, 700 mM NaCl, 20 mM EDTA, and 0.01% (w/v) Tween-20. Importantly Eu-cryptate-coupled streptavidin had to be preincubated with a 100-fold molar excess of a random sequence oligonucleotide for 10 min at rt in the dark to block unspecific binding of single stranded RNA to the protein. Subsequently, the blocked streptavidin(-Eu) was mixed with the DNA-probes on ice and kept away from light until use. […]

[2] = test system: mitochondrial transcription (7S RNA) in HeLa cells; test: Quantitative real time-PCR assay of inhibition of mitochondrial transcription (7S RNA) in HeLa cells; type: cell-based; conditions: Homo sapiens, 4 h compound incubation, according to Example 5, read-out: cellular qPCR assay
Description: Quantitative real-time PCR (qRT-PCR), based on the TaqMan™ (Thermo Fisher Scientific, Waltham Mass.) technology, was carried out essentially as described in Held et al. (1996). HeLa cells were plated one day before compound treatment in RPMI medium supplemented with 10% Fetal Calf Serum and 2 mM L-glutamine. Cells were incubated with dilution series of compounds or vehicle (DMSO) for 4 h, prior to harvest and extraction of the RNA using the RNeasy Mini Kit (Qiagen, Hilden D), according to the manufacturer's instructions. RNA concentrations were measured spectroscopically, using a NanoDrop-2000 (Thermo Fisher Scientific, Waltham Mass.) and normalized prior to cDNA synthesis, using a ‘High-Capacity cDNA Reverse Transcription Kit’ (Thermo Fisher Scientific, Waltham Mass.). qRT-PCR was carried out using the ‘TaqMan Fast Advance Master Mix’ (Thermo Fisher Scientific, Waltham Mass.) on a 7500 Fast Real-Time PCR machine (Applied Biosystems, Foster City Calif.)
For these measurements, three genes were used to compare the effect of the scrutinized compounds in relation to their concentration. The POLRMT-gene was used to detect potential influences on nuclear transcription. Mitochondrial transcription in vivo was monitored by measurements 7S RNA. The TBP (TATA-box binding protein) gene was employed as the control (housekeeping gene) during qRT-PCR. The short-lived mitochondrial 7S RNA, which is not post-transcriptionally stabilized, allowed us to monitor rapid changes in mitochondrial transcription activity following compound addition. Biological triplicates were analyzed using the comparative CT Method (ΔΔCt) method (Bubner and Baldwin, 2004) and reported as Rq % values (Rq=Relative quantification=2−ΔΔCt).

Sequence of mitochondrial RNA polymerase (POLRMT) (Q8BKF1 42-1207): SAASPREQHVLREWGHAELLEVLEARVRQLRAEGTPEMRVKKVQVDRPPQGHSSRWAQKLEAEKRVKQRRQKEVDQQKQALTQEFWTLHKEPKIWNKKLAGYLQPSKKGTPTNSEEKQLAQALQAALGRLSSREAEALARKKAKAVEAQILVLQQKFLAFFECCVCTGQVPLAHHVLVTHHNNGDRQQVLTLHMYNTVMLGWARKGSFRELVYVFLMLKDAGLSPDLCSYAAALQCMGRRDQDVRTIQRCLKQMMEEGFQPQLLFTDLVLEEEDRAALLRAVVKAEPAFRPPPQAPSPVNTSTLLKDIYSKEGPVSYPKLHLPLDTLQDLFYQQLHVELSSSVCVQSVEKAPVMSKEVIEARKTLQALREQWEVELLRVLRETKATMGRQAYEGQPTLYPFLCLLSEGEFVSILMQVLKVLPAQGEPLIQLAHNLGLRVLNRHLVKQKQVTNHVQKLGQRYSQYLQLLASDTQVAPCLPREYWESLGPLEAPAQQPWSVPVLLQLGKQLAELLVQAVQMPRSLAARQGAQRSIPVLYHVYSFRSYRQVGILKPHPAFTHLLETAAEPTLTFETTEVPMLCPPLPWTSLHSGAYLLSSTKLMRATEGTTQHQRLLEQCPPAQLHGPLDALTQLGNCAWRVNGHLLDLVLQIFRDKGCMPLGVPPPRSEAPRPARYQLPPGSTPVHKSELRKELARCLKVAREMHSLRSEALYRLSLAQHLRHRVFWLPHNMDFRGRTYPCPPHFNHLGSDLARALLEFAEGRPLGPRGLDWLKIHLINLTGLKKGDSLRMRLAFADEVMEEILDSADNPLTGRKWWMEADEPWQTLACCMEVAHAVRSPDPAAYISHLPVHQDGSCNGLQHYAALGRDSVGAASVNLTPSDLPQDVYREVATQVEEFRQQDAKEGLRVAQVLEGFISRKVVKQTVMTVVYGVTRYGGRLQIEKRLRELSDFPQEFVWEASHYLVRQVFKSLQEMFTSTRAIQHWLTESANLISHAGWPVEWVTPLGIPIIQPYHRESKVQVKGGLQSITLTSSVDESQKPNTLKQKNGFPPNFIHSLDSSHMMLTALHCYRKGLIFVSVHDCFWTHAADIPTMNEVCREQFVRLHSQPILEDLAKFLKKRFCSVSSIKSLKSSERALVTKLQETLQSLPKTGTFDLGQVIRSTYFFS

Cc1cc(F)cc(C)c1-c1ccnc2cc(O[C@H](C)C(=O)N3CCCC4(CC4C(=O)O)C3)ccc12 (mixture of isomers) [Compound 174, 5-[rac-(2R)-2-[[4-(4-fluoro-2,6-dimethyl-phenyl)-7-quinolyl]oxy]propanoyl]-5-azaspiro[2.5]octane-2-carboxylic acid]
IC50 [1]: < 20 nM
IC50 [2]: < 10 nM

C[C@@H](Oc1ccc2c(-c3c(Cl)cc(F)cc3Cl)ccnc2c1)C(=O)N1CCCC(C2(C(=O)O)CC2)C1 (mixture of isomers) [Compound 196, 1-[1-[rac-(2R)-2-[[4-(2,6-dichloro-4-fluoro-phenyl)-7-quinolyl]oxy]propanoyl]-3-piperidyl]cyclopropanecarboxylic acid]
IC50 [1]: 20 to 100 nM
IC50 [2]: 10 to 50 nM

C[C@@H](Oc1ccc2c(-c3ccc(F)cc3Cl)ccnc2c1)C(=O)N1CCCC(S(N)(=O)=O)C1 (mixture of isomers) [Compound 33, 1-[rac-(2R)-2-[[4-(2-chloro-4-fluoro-phenyl)-7-quinolyl]oxy]propanoyl]piperidine-3-sulfonamide]
IC50 [1]: 100 to 1000 nM
IC50 [2]: < 10 nM

CC(Oc1ccc2c(-c3ccc(F)cc3Cl)ccnc2n1)C(=O)N1CCC[C@H](C(=O)O)C1 (mixture of isomers) [Compound 62, (3S)-1-[2-[[5-(2-chloro-4-fluoro-phenyl)-1,8-naphthyridin-2-yl]oxy]propanoyl]piperidine-3-carboxylic acid]
IC50 [1]: 100 to 1000 nM
IC50 [2]: 10 to 50 nM

CC(Oc1ccc2c(-c3ccc(F)cc3Cl)ccnc2n1)C(=O)N1CCC[C@H](CC(=O)O)C1 (mixture of isomers) [Compound 80, 2-[rac-(3R)-1-[2-[[5-(2-chloro-4-fluoro-phenyl)-1,8-naphthyridin-2-yl]oxy]propanoyl]-3-piperidyl]acetic acid]
IC50 [1]: 1000 to 10000 nM
IC50 [2]: 50 to 500 nM

COc1ccccc1-c1ccnc2cc(O[C@H](C)C(=O)N3CCC[C@H](CC(=O)O)C3)ccc12 [Compound 135, 2-[(3R)-1-[(2R)-2-[[4-(2-methoxyphenyl)-7-quinolyl]oxy]propanoyl]-3-piperidyl]acetic acid]
IC50 [1]: 1000 to 10000 nM

C[C@@H](Oc1ccc2c(-c3ccccc3C(F)(F)F)ccnc2c1)C(=O)N1CCC[C@H](CC(=O)O)C1 [Compound 136, 2-[(3R)-1-[(2R)-2-[[4-[2-(trifluoromethyl)phenyl]-7-quinolyl]oxy]propanoyl]-3-piperidyl]acetic acid]
IC50 [1]: 100 to 1000 nM

C[C@@H](Oc1ccc2c(-c3ccccc3OC(F)(F)F)ccnc2c1)C(=O)N1CCC[C@H](CC(=O)O)C1 [Compound 137, 2-[(3R)-1-[(2R)-2-[[4-[2-(trifluoromethoxy)phenyl]-7-quinolyl]oxy]propanoyl]-3-piperidyl]acetic acid]
IC50 [1]: 1000 to 10000 nM

Cc1cccc(C)c1-c1ccnc2cc(O[C@H](C)C(=O)N3CCC[C@H](S(N)(=O)=O)C3)ccc12 [Compound 138, (3S)-1-[(2R)-2-[[4-(2,6-dimethylphenyl)-7-quinolyl]oxy]propanoyl]piperidine-3-sulfonamide]
IC50 [1]: < 20 nM

CC(C)(Oc1ccc2c(-c3ccccc3Cl)ccnc2c1)C(=O)N1CCC[C@H](CC(=O)O)C1 [Compound 139, 2-[(3R)-1-[2-[[4-(2-chlorophenyl)-7-quinolyl]oxy]-2-methyl-propanoyl]-3-piperidyl]acetic acid]
IC50 [1]: 1000 to 10000 nM

Cc1cccc(Cl)c1-c1ccnc2cc(O[C@H](C)C(=O)N3CCC[C@H](CC(=O)O)C3)ccc12 [Compound 141, 2-[(3R)-1-[(2R)-2-[[4-(2-chloro-6-methyl-phenyl)-7-quinolyl]oxy]propanoyl]-3-piperidyl]acetic acid]
IC50 [1]: < 20 nM

C[C@@H](Oc1ccc2c(-c3ccccc3Br)ccnc2c1)C(=O)N1CCC[C@H](CC(=O)O)C1 [Compound 142, 2-[(3R)-1-[(2R)-2-[[4-(2-bromophenyl)-7-quinolyl]oxy]propanoyl]-3-piperidyl]acetic acid]
IC50 [1]: < 20 nM

C[C@@H](Oc1ccc2c(-c3ccccc3C#N)ccnc2c1)C(=O)N1CCC[C@H](CC(=O)O)C1 [Compound 143, 2-[(3R)-1-[(2R)-2-[[4-(2-cyanophenyl)-7-quinolyl]oxy]propanoyl]-3-piperidyl]acetic acid]
IC50 [1]: 100 to 1000 nM

C#Cc1ccccc1-c1ccnc2cc(O[C@H](C)C(=O)N3CCC[C@H](CC(=O)O)C3)ccc12 [Compound 144, 2-[(3R)-1-[(2R)-2-[[4-(2-ethynylphenyl)-7-quinolyl]oxy]propanoyl]-3-piperidyl]acetic acid]
IC50 [1]: 20 to 100 nM

C[C@@H](Oc1ccc2c(-c3ccccc3N(C)C)ccnc2c1)C(=O)N1CCC[C@H](CC(=O)O)C1 [Compound 145, 2-[(3R)-1-[(2R)-2-[[4-[2-(dimethylamino)phenyl]-7-quinolyl]oxy]propanoyl]-3-piperidyl]acetic acid]
IC50 [1]: 100 to 1000 nM

C[C@@H](Oc1ccc2c(-c3c(C(F)(F)F)cccc3C(F)(F)F)ccnc2c1)C(=O)N1CCC[C@H](CC(=O)O)C1 [Compound 151, 2-[(3R)-1-[(2R)-2-[[4-[2,6-bis(trifluoromethyl)phenyl]-7-quinolyl]oxy]propanoyl]-3-piperidyl]acetic acid]
IC50 [1]: 1000 to 10000 nM

COc1cccc(Cl)c1-c1ccnc2cc(O[C@H](C)C(=O)N3CCC[C@H](CC(=O)O)C3)ccc12 [Compound 152, 2-[(3R)-1-[(2R)-2-[[4-(2-chloro-6-methoxy-phenyl)-7-quinolyl]oxy]propanoyl]-3-piperidyl]acetic acid]
IC50 [1]: 1000 to 10000 nM

Cc1cccc(C)c1-c1ccnc2cc(O[C@H](C)C(=O)N3CCC[C@@H](S(N)(=O)=O)C3)ccc12 [Compound 172, (3R)-1-[(2R)-2-[[4-(2,6-dimethylphenyl)-7-quinolyl]oxy]propanoyl]piperidine-3-sulfonamide]
IC50 [1]: < 20 nM

C[C@@H](Oc1ccc2c(-c3ccc(F)cc3Cl)ccnc2c1)C(=O)N1C[C@H]2C[C@@H]1CN2 [Compound 217, (2R)-2-[[4-(2-chloro-4-fluoro-phenyl)-7-quinolyl]oxy]-1-[(1R)-2,5-diazabicyclo[2.2.1]heptan-2-yl]propan-1-one]
IC50 [1]: 1000 to 10000 nM

C[C@@H](Oc1ccc2c(-c3ccc(F)cc3Cl)ccnc2c1)C(=O)N1CC2(COC2)C1 [Compound 218, (2R)-2-[[4-(2-chloro-4-fluoro-phenyl)-7-quinolyl]oxy]-1-(2-oxa-6-azaspiro[3.3]heptan-6-yl)propan-1-one]
IC50 [1]: 1000 to 10000 nM
